Test results from US20140066394A1, “Substituted 6-(Benzylamino) Purine Riboside Derivatives, Use Thereof and Compositions Containing These Derivatives” (Biopatterns, S.R.O, priority 2009, published 2014).

How the values were obtained:
Assay type in all cases: cell-based
neutrophils [1] = test: ANCA stimulated neutrophil degranulation (MPO release, ELISA); details: Homo sapiens, 0.5 h, TNFα primed, MPO release over 30 minute period (FIG. 10), read-out: IC50 of inhibition of ANCA stimulated neutrophil degranulation
Experimental: FIG. 10 Inhibition of ANCA induced neutrophil degranulation by compound 10. Neutrophils were cultured at 2×10^6 cells/ml in RPMI1640 medium containing human serum antibiotics and 20 ng/ml TNFα for 10 minutes prior to addition of ANCA (1=MPO ANCA; 2=PR3 ANCA) and a range of concentrations of compound 10. Release of MPO was monitored after a 30 minute period by ELISA.
ANCA are predominantly IgG autoantibodies directed against constituents of primary granules of neutrophils (PR3 and MPO). ANCA associated vasculitis is the most common primary systemic small-vessel vasculitis in adults. […] Neutrophils were cultured for 10 hours in RPMI1640 medium containing 2% human AB serum, 2 mM L-glutamine and antibiotics (100 U/ml penicillin, […] streptomycin) and their apoptosis determined by staining with Giemsa stain and observing an apoptotic morphology by light microscopy. […] The ability of compound 10 to inhibit ANCA-induced neutrophil inflammatory functions was also determined Neutrophils were cultured in RPMI1640 medium containing 2% human AB serum, 2 mM L-glutamine and antibiotics (100 U/ml penicillin, […] streptomycin). […] ANCA stimulated degranulation of neutrophils was assessed by release of myeloperoxidase in to the medium over a 30 minute period, with MPO measured by ELISA. […] HUVEC viability was determined by trypan blue staining and light microscopy.

β-adrenergic receptors = test: Isoproterenol-induced cAMP synthesis in rat C6 glioma (anti-inflammatory activity)
Experimental: Anti-inflammatory activity of several of the 2-substituted 6-benzylaminopurine riboside derivatives of this invention was determined; kinetin riboside was also evaluated as a control. Rat C6 glioma (ATCC No. CCL107) was cultivated in monolayer in serum-free chemically defined medium containing Ham's F10/minimal essential medium (1:1 v/v), 2 mM L-glutamine, 1% (v/v) minimal essential medium vitamins (100×), 1% (v/v) minimal essential medium nonessential amino acids (100×), 100 U/mL penicillin, […], and 30 nM sodium selenite. Incubation was performed at 37° C. in a humidified atmosphere. The assays were performed in the logaritmic growth phase at a density of 2.5×10^5 cells/cm^2.
Intracellular cAMP synthesis was induced by addition of 5 mM (−)-isoproterenol; various amounts of test compounds were added at the same time as the (−)-isoproterenol. After […] incubation at 37° C., the medium was removed and the cellular amount of cAMP was determined using the cAMP-enzyme immunoassay kit from Amersham. The I50 value was determined from a dose-response curve in duplicate. The effect of nine purine analogues was measured after simultaneous addition with isoproterenol.
As P2Y1-like and A2 purinergic receptors, negatively and positively coupled to adenylate cyclase respectively, are present on rat C6 glioma as to be determined if the modulation of the synthesis of cAMP is due to inhibition of the activation of β-adrenergic receptors by isoproterenol are due to activation of purinergic receptors.

neutrophils [2] = test: Neutrophil superoxide generation, lucigenin based assay; details: Homo sapiens, primed neutrophils, compound 10 minutes prior to fMLP (FIG. 2)
Experimental: Neutrophils were cultured at 2×10^6 cells/ml in RPMI1640 medium containing human serum antibiotics and 20 ng/ml TNFα for 10 minutes prior to addition of a range of concentrations of compound 10. Generation of superoxide was determined over a 10 minute period using a lucigenin based assay. The area under the curve was calculated to give superoxide generation over the whole assay period.
(§1) Anti-inflammatory effects against neutrophils were determined by assessing effects of several of the compounds on neutrophil inflammatory activity (superoxide generation, secretion of chemoattractant IL8 and degranulation to release myeloperoxidase). Neutrophils were isolated from human blood to a purity of greater than 95% and were cultured in RPMI1640 medium containing 2% human AB serum, 2 mM L-glutamine and antibiotics (100 U/ml penicillin, […] streptomycin). Neutrophils were primed for 30 minutes with 50 ng/ml GM-CSF prior to treatment with the bacterial stimulant fMLP (100 ng/ml) and measurement of superoxide generation in a lucigenin based assay (see Pongracz J and Lord J M 1998, Biochem. Biophys. Res. Commun. 247, 624-629) and release of IL8 and myeloperoxidase using an ELISA method. The novel compounds were added to the culture at a range of concentrations (0.1-100 μM) 10 minutes prior to addition of fMLP. […]

neutrophils [3] = test: Neutrophil IL8 release, ELISA; details: Homo sapiens, primed neutrophils, ELISA (FIG. 3)
Experimental: Neutrophils were cultured at 2×10^6 cells/ml in RPMI1640 medium containing human serum antibiotics and 20 ng/ml TNFα for 10 minutes prior to addition of a range of concentrations of compound 10. Release of IL8 was monitored after a 4 h period by ELISA. Data are mean of duplicate measurements representative of 5 separate experiments.
as §1

For `COc1cccc(CNc2nc(Cl)nc3c2ncn3C2OC(CO)C(O)C2O)c1O` (centres unmarked) [Compound 10, 2-Chloro-6-(2-hydroxy-3-methoxybenzylamino)purine riboside], the IC50 (neutrophils [1]) was 3 µM, the “Effect (modulation of isoproterenol-induced cAMP synthesis)” value (β-adrenergic receptors; added simultaneously with (−)-isoproterenol) was “inhibition” and the IC50 (β-adrenergic receptors; cellular cAMP by enzyme immunoassay, dose-response curve in duplicate, read-out: I50) was 7.5 ± 1 µM. The IC50 (neutrophils [2]) was 5 µM and the IC50 (neutrophils [3]) was 0.05 µM.
